Measurements published in patent US20110045032A1 (priority 2001, published 2011).
“Also recorded” adds a separate entry of the source.

Experiments:
Format in all cases: in vivo
[1] = test system: dust mite-sensitized rabbits; experiment: Pulmonary function after allergen challenge, intratracheal powder (Example 25)
Protocol: This study defines the effect of 7 days of treatment with DHEA-S on allergen-induced bronchial hyperresponsiveness (BHR), early and late phase responses, and pulmonary inflammation in dust mite-sensitized rabbits. Baseline BHR and inflammation were first determined. The following week, allergen challenge, pulmonary function testing and BALF were performed on the untreated rabbits. Histamine sensitivity was determined 24 hours post allergen challenge. Rabbits were rested for 3 weeks then baseline values were re-established. The following week, DHEA-S (5 mg/day) was delivered once a day for 7 days via an intratracheal powder injector through the endrotracheal tube of the anesthetized rabbit. On day 8, 24 hrs after the last treatment, allergen challenge, pulmonary function testing and BALF were performed as previously. On day 9, 24 hrs after allergen challenge, a histamine challenge was performed. The drug was not micronized prior to use thus only a portion of the administered date was expected to reach the deep lung. The study includes 4 animals studied under a crossover design. The treatment with DHEA-S led to changes in the disease status of the animals that are described in the following paragraph.
Effects on airway obstruction were measured by changes in dynamic compliance and total lung resistance in response to allergen challenge. Rabbits were monitored for 6 hours following allergen challenge and the values plotted against time. Changes in dynamic compliance were determined by the % change in compliance as compared to the animal's initial saline value recorded prior to challenge. Changes in response to allergen and/or treatment were calculated using the area under the curve (AUC) where an AUC unit is defined as % change×hour. Treatment with DHEA-S attenuated the drop in airway compliance following allergen challenge by 86% as compared to allergen alone. Following allergen alone the total AUC was −146 units compared to −20 units for animals treated with DHEA-S. This difference in the total AUC for vehicle and DHEA-S treated animals was determined to be significant using Student's t-test for paired observations, p=0.036. Similarly, treatment with DHEA-S attenuated the increase in airway resistance following allergen challenge by 54% as compared to allergen alone. […] Variability during the late phase kept differences in AUC between the vehicle and drug treatment groups from being significant when analyzed using a paired t-test.

[2] = test system: dust mite-sensitized rabbits; experiment: Bronchial hyperresponsiveness to histamine (Example 27)
Protocol: (§1) This follow-up study compared the effects of DHEA-S and Puimicort® (budesonide inhalation suspension) on allergen-induced bronchial hyperresponsiveness (BHR) to histamine and pulmonary inflammation in dust mite-sensitized rabbits. The study included 18 animals divided into 3 treatment groups: saline, DHEA-S, and Puimicort. The animals were treated for once per day for 5 consecutive days via nebulization through a pediatric facemask covering the nose and mouth. Treatments were DHEA-S, 10 mg/day (5 mg/ml), Pulmicort Respules, 0.5 mg/day (0.5 mg/2 ml, note: this is the standard human dose) or saline (2 ml). A dust mite challenge was performed on day 4, and development of airway inflammation was assessed 6 hours and 30 hours after dust mite challenge. Histamine sensitivity was assessed 30 hours after challenge (day 5) and the lungs removed for histology.
There was an increase in the area under the curve of 17.42, which means the animals became more sensitive to histamine following allergen exposure. […] The resulting change in the area under the curve was −4.52 and −6.70 for DHEA-S and Puimicort, respectively, this means that animals treated with DHEA-S or Pulmicort were less sensitive to histamine following allergen exposure.

rats = experiment: Acute inhalation toxicity in rats; details: inhalation
Protocol: (§2) Other findings were minor in nature and detailed in the reports that follow. Therefore, nebulization of an aqueous solution was determined to be feasible but not practical due to the inability to achieve a sufficient safety factor to support clinical trials.

[3] = Acute inhalation toxicity in rats; details: rat, in vivo, inhaled; preclinical toxicology studies; not achieved at this dose; read-out: maximum tolerated dose
Protocol: as §2

[4] = test system: dust mite-sensitized rabbits; experiment: Lung histology (Example 26); details: blinded veterinary pathologist, scale of 0 to 4; vs vehicle control
Protocol: This study defines the effect of 7 days of treatment with DHEA-S on allergen-induced bronchial hyperresponsiveness (BHR), early and late phase responses, and pulmonary inflammation in dust mite-sensitized rabbits. Baseline BHR and inflammation were first determined. DHEA-S (5 mg/ml, 2 ml nebulized) or an equivalent volume of vehicle was delivered once per day via nebulization through a pediatric facemask covering the nose and mouth on days 1 through 7. On day 8, 24 hours after the last treatment, allergen challenge, pulmonary function testing and BALF were performed. On day 9, 24 hours after allergen challenge a histamine challenge was performed and the lungs removed for histology. The study includes 5 animals studied under a crossover design. […]
Effects on interstitial inflammation were evaluated by histology. A veterinary pathologist evaluated hematoxylin and eosin stained sections in a blinded manner. Sections were scored for inflammatory parameters using a scale of 0 to 4 with 0 representing no finding and 4 representing severe. […] All of the following parameters were scored lower in the DHEA-S treated lungs compared to the vehicle control group: cuffing of the airways and blood vessels by inflammatory cells, bronchial-associated lymphoid tissue hyperplasia, and bronchitis/bronchiolitis. […]

[5] = test system: dust mite-sensitized rabbits; experiment: BALF inflammation, DHEA-S vs Pulmicort vs saline (Example 27)
Protocol: as §1

[6] = test system: dust mite-sensitized rabbits; experiment: Lung histology (Example 27); details: compared to saline
Protocol: as §1
Analysis of lung sections indicated a moderate level of pulmonary inflammation in all groups. No differences in the level of monocyte phagocytic hyperplasia, airway and blood vessel cuffing by inflammatory cells, pneumonitis, pneumonia, bronchial associated lymphoidal tissue hyperplasia, septal edema, hemorrhage, alveolar edema, or bronchitis/bronchiolitis was observed, although monocyte phagocytic hyperplasia tended to be higher in the Pulmicort and DHEA-S groups, and bronchitis tended to be lower.

[7] = test system: dust mite-sensitized rabbits; experiment: BALF cell count, nebulized (Example 26)
Protocol: This study defines the effect of 7 days of treatment with DHEA-S on allergen-induced bronchial hyperresponsiveness (BHR), early and late phase responses, and pulmonary inflammation in dust mite-sensitized rabbits. Baseline BHR and inflammation were first determined. DHEA-S (5 mg/ml, 2 ml nebulized) or an equivalent volume of vehicle was delivered once per day via nebulization through a pediatric facemask covering the nose and mouth on days 1 through 7. On day 8, 24 hours after the last treatment, allergen challenge, pulmonary function testing and BALF were performed. On day 9, 24 hours after allergen challenge a histamine challenge was performed and the lungs removed for histology. The study includes 5 animals studied under a crossover design. There was a 3 week resting period between study arms and lungs were taken during the second treatment arm only. The treatment with DHEA-S led to the changes in the disease status of the animals described in the following paragraph.

[8] = 6 hours after allergen challenge, compared to Pulmicort
[9] = 6 hours after allergen-challenge, compared to vehicle control

Question: Which “attenuation of the drop in airway compliance following allergen challenge” value ([1]; 5 mg/day intratracheal powder, 7 days, compared to allergen alone) does the source give for CC12CCC3C(CC=C4CC(OS(=O)(=O)[O-])CCC43C)C1CCC2=O.[Na+] (stereo not drawn) [DHEA-S, Dehydroepiandrosterone sulfate] here?
Answer: Its value is 86%.

Question: And the “total area under the curve for the change in resistance following allergen challenge” value ([1]; 6 hours, control 1069±243, not significant)?
Answer: Its value is 495.

Question: What about the “total area under the curve for the change in compliance following allergen challenge” value ([1]; AUC unit = % change×hour, 6 hours, control −146±29) of the same compound?
Answer: The value was −20 units.

Question: And the “attenuation of the increase in airway resistance following allergen challenge” value ([1]; compared to allergen alone)?
Answer: Its value is 54%.

Question: What about the “reduction of airway resistance changes” value ([1]; in the 6 hours after aerosol dust mite challenge) of the same compound?
Answer: The value was “over 200%”.

Question: What about the “total area under the curve for the change in compliance following allergen challenge” value ([1]; inhaled or nasal, 6 h) of the same compound?
Answer: The value was −20±23 units.

Question: What about the “24-hour histamine responsiveness following allergen challenge” value ([1]; rabbit, in vivo) of the same compound?
Answer: Its value is “downward shift”.

Question: What about the “change in the area under the histamine dose-response (resistance) curve” value [2] of the same compound?
Answer: The value was −4.52.

Question: And the histamine response curve ([2]; 30 hours after challenge)?
Answer: Its histamine response curve is “tended to shift the histamine response curve downward”.

Question: What about the maximum tolerated dose (rats) of the same compound?
Answer: Its maximum tolerated dose is “could not be achieved”.

Question: And the “adverse effects to the respiratory tract” value (rats; up to the maximum feasible dose)?
Answer: Its value is “did not produce any adverse affects”.

Question: What about the MTD [3] of the same compound?
Answer: Its MTD is greater than 11 mg/kg/day.

Question: What about the “histological evaluation of airway inflammation” value [4] of the same compound?
Answer: The value was “reduced inflammatory cell cuffing of the vessels and bronchi, bronchus-associated lymphoid tissue hyperplasia, and epithelial sloughing; also recorded: scored lower”.

Question: What about the “number of eosinophils in BALF” value ([5]; 6 hours after allergen challenge) of the same compound?
Answer: Its value is “tended to decrease”.

Question: And the “decrease of epithelial shedding” value [5, 8]?
Answer: Its value is 54%.

Question: And the “reduction of number of neutrophils in the BALF” value [5, 8]?
Answer: Its value is 91%.

Question: And the “reduction of cellular influx of cells into the BALF” value ([5]; 6 hours after allergen challenge, compared to Pulmicort, DHEA-S 10 mg/day nebulized, 5 days)?
Answer: The value was 62%.

Question: What about the “allergen-induced increase in neutrophils in BALF” value ([5]; 6 hours or 24 hours after allergen challenge) of the same compound?
Answer: Its value is “no allergen-induced increase in neutrophils”.

Question: And the “number of eosinophils in BALF” value ([5]; 24 hours after allergen challenge)?
Answer: The value was “significant elevation”.

Question: And the “total number of cells in the BALF compared to pre-challenge value” ([5]; six hours following allergen challenge)?
Answer: The value was “did not”.

Question: What about the “reduction of eosinophilic inflammation compared with budesonide” value ([5]; summary statement) of the same compound?
Answer: The value was “at least equivalent to budesonide”.

Question: And the “reduction of neutrophilic inflammation compared with budesonide” value ([5]; summary statement)?
Answer: The value was “far superior”.

Question: And the monocyte phagocytic hyperplasia ([6]; not significant)?
Answer: The monocyte phagocytic hyperplasia was “tended to increase”.

Question: What about the necrotizing bronchitis ([6]; not significant) of the same compound?
Answer: The necrotizing bronchitis was “tended to decrease”.

Question: And the pavementing ([6]; statistically significant)?
Answer: Its pavementing is “decreased pavementing”.

Question: What about the “lower numbers of eosinophils in BALF” value [7, 9] of the same compound?
Answer: Its value is 52%.

Question: And the “lower numbers of macrophages in BALF” value [7, 9]?
Answer: The value was 68%.

Question: What about the “lower numbers of neutrophils in BALF” value [7, 9] of the same compound?
Answer: The value was 69%.

Question: And the “effect on BALF cell numbers” value ([7]; 24 hours after dust mite challenge)?
Answer: The value was “not significant”.

Question: And the “decrease of inflammatory cell migration into the BAL fluid” value ([7]; rabbit, in vivo)?
Answer: The value was 68%.

Question: And the “eosinophils in BAL fluid” value ([7]; six hours after dust mite challenge, vehicle 8)?
Answer: The value was 4 ×10^4 eosinophils/ml.

Question: What about the “third cell count in BAL fluid (cell type not given)” value ([7]; six hours after dust mite challenge, vehicle 37) of the same compound?
Answer: Its value is 12 ×10^4.

Question: And the “neutrophils in BAL fluid” value ([7]; six hours after dust mite challenge, vehicle 94)?
Answer: The value was 29 ×10^4 neutrophils/ml.
